Experimental data taken from US11466034B2, “Compound functioning as bromodomain protein inhibitor, and composition” (Betta Pharmaceuticals Co., Ltd., priority 2017, dated 2022).

Columns and labels:
BRD4(D1) = BRD4(D1) (Homo sapiens (Human), UniProt O60885); experiment: Inhibitory activity against BRD4(D1), HTRF assay; type: binding
Procedure: (§1) (+)-JQ1 was used as comparison compound, to evaluated the inhibitory activity of compounds of the invention against BRD4(D1) and BRD4(D2) in vitro.
(§2) The assays of BRD4 (D1) and BRD4 (D2) were conducted in a 384-well polystyrene plate. The test compounds were first serially diluted in DMSO and the test compound/DMSO were transferred to 384-well plates. The final concentration of DMSO in the assay was 0.1%. 2 volumes of protein/peptide mixture were added into 384-well plates, then 2 volumes of assay mixture were added, and shake for 30 s. The plate was incubated at room temperature for 2 h. Then the HTRF signal on EnVision was readed.
(§3) Use equation (1) to fit the date in Excel to obtain the value of the inhibition rate. Inhibition rate (%)=(maximum value−signal value)/(maximum value−minimum value)*100 Equation(1):
(§4) IC50 determination was performed by fitting the data using GraphPad Prism 5.0 software and equation (2). Y=bottom+(Top−bottom)/(1+10^((Log IC50−X)*HillSlope)); Equation(2): wherein, Y represents the percentage of inhibition (%); X represents the concentration of test compounds.
(§5) The IC50 data of the examples were provided in the following table, wherein, A stands for IC50<100 nM; B stands for IC50 is 100-300 nM; C stands for IC50>300 nM.

BRD4(D2) = BRD4(D2) (Homo sapiens (Human), UniProt O60885); experiment: Inhibitory activity against BRD4(D2), HTRF assay; type: binding
Procedure: as §1, §2, §3, §4, §5

IC50 (BRD4(D1); numeric values) [nM] | IC50 (BRD4(D2); numeric values) [nM] | IC50 (BRD4(D1); class symbols) [nM] | IC50 (BRD4(D2); class symbols) [nM] | SMILES
6.1 | 1.8 | – | – | Cc1nc2ncc(-c3cn(C)c(=O)c4[nH]ccc34)nc2n1C(C)c1ccc(Cl)cc1 (stereo not shown) [Example 21, 4-(1-(1-(4-chlorophenyl)ethyl)-2-methyl-1H-imidazo[4,5-b]pyrazin-6-yl)-6-methyl-1,6-dihydro-7H-pyrrolo[2,3-c]pyridin-7-one]
– | – | < 100 | < 100 | CCS(=O)(=O)Nc1cc(-c2cn(C)c(=O)c3[nH]ccc23)cc2c1nc(C)n2Cc1ccc(Cl)cc1F [Example 49, N-(2-methyl-6-(6-methyl-7-oxo-6,7-dihydro-1H-pyrrolo[2,3-c]pyridin-4-yl)-1-(2-fluoro-4-chlorobenzyl)-1H-benzo[d]imidazol-4-yl)ethanesulfonamide]
– | – | < 100 | < 100 | CCS(=O)(=O)Nc1cc(-c2cn(C)c(=O)c3[nH]ccc23)cc2c1nc(C)n2Cc1cccc(C(F)(F)F)c1 [Example 46, N-(2-methyl-6-(6-methyl-7-oxo-6,7-dihydro-1H-pyrrolo[2,3-c]pyridin-4-yl)-1-(3-(trifluoromethyl)benzyl)-1H-benzo[d]imidazol-4-yl)ethanesulfonamide]
– | – | < 100 | < 100 | Cc1nc2ncc(-c3cn(C)c(=O)c4[nH]ccc34)nc2n1Cc1cc(C(F)(F)F)ccc1F [Example 24, 4-(1-(2-fluoro-5-trifluoromethylbenzyl)-2-methyl-1H-imidazo[4,5-b]pyrazin-6-yl)-6-methyl-1H-pyrrolo[2,3-c]pyridin-7(6H)-one]
1.3 | 1.2 | – | – | CCS(=O)(=O)Nc1cc(-c2cn(C)c(=O)c3[nH]ccc23)nc2c1ncn2Cc1cc(F)cc(F)c1 [Example 62, N-(3-(3,5-difluorobenzyl)-5-(6-methyl-7-oxo-6,7-dihydro-H-pyrrolo[2,3-c]pyridin-4-yl)-3H-imidazo[4,5-b]pyridin-7-yl)ethanesulfonamide]
– | – | < 100 | < 100 | Cc1nc2ncc(-c3cn(C)c(=O)c4[nH]ccc34)nc2n1Cc1ccc(C(F)(F)F)c(Cl)c1 [Example 29, 4-(1-(3-chloro-4-trifluoromethylbenzyl)-2-methyl-1H-imidazo[4,5-b]pyrazin-6-yl)-6-methyl-1H-pyrrolo[2,3-c]pyridin-7(6H)-one]
7 | 2.5 | – | – | Cc1nc2ncc(-c3cn(C)c(=O)c4[nH]ccc34)cc2n1Cc1ccc(Cl)cc1 [Example 1, 4-(1-(4-chlorobenzyl)-2-methyl-1H-imidazo[4,5-b]pyridin-6-yl)-6-methyl-1H-pyrrolo[2,3-c]pyridin-7(6H)-one]
14.6 | 4 | – | – | Cc1nc2ncc(-c3cn(C)c(=O)c4[nH]ccc34)cc2n1Cc1ccc(C(F)(F)F)cc1 [Example 4, 6-methyl-4-(2-methyl-1-(4-(trifluoromethyl)benzyl)-1H-imidazo[4,5-b]pyridin-6-yl)-1H-pyrrolo[2,3-c]pyridin-7(6H)-one]
– | – | < 100 | < 100 | CCS(=O)(=O)Nc1cc(-c2cn(C)c(=O)c3[nH]ccc23)cc2c1nc(C)n2Cc1ccc(C(F)(F)F)c(Cl)c1 [Example 52, N-(2-methyl-6-(6-methyl-7-oxo-6,7-dihydro-1H-pyrrolo[2,3-c]pyridin-4-yl)-1-(3-chloro-4-(trifluoromethyl)benzyl)-1H-benzo[d]imidazol-4-yl)ethanesulfonamide]
– | – | < 100 | < 100 | CCS(=O)(=O)Nc1cc(-c2cn(C)c(=O)c3[nH]ccc23)cc2c1nc(C)n2Cc1ccc(C(F)(F)F)cc1 [Example 42, N-(2-methyl-6-(6-methyl-7-oxo-6,7-dihydro-1H-pyrrolo[2,3-c]pyridin-4-yl)-1-(4-(trifluoromethyl)benzyl)-1H-benzo[d]imidazol-4-yl)ethanesulfonamide]
– | – | > 300 | 100 to 300 | COc1ccc(Cn2c(C)nc3ncc(-c4cn(Cc5ccn[nH]5)c(=O)c5[nH]ccc45)cc32)cc1 [Example 15, 4-(1-(4-methoxybenzyl)-2-methyl-1H-imidazo[4,5-b]pyridin-6-yl)-6-(pyrazol-2-methyl)-1,6-dihydro-7H-pyrrolo[2,3-c]pyridin-7-one]
– | – | < 100 | < 100 | CCS(=O)(=O)Nc1cc(-c2cn(C)c(=O)c3[nH]ccc23)nc2c1nc(C)n2Cc1cc(F)cc(F)c1 [Example 67, N-(3-(3,5-difluorobenzyl)-2-methyl-5-(6-methyl-7-oxo-6,7-dihydro-H-pyrrolo[2,3-c]pyridin-4-yl)-3H-imidazo[4,5-b]pyridin-7-yl)ethanesulfonamide]
45.1 | 5.3 | – | – | Cc1[nH]c2ncc(-c3cn(C)c(=O)c4[nH]ccc34)cc2c1C(C)c1c(Cl)ccc(F)c1Cl (stereo not shown) [Example 35, 4-(3-(1-(2,6-dichloro-3-fluorophenyl)ethyl)-2-methyl-1H-pyrrolo[2,3-b]pyridin-5-yl)-6-methyl-1,6-dihydro-7H-pyrrolo[2,3-c]pyridin-7-one]
– | – | < 100 | < 100 | Cc1nc2ncc(-c3cn(C)c(=O)c4[nH]ccc34)nc2n1Cc1ccc(Cl)cc1F [Example 26, 4-(1-(2-fluoro-4-chlorobenzyl)-2-methyl-H-imidazo[4,5-b]pyrazin-6-yl)-6-methyl-H-pyrrolo[2,3-c]pyridin-7(6H)-one]
– | – | < 100 | < 100 | CCS(=O)(=O)Nc1cc(-c2cn(C)c(=O)c3[nH]ccc23)cc2c1nc(C)n2Cc1cc(F)cc(C(F)(F)F)c1 [Example 48, N-(2-methyl-6-(6-methyl-7-oxo-6,7-dihydro-1H-pyrrolo[2,3-c]pyridin-4-yl)-1-(3-fluoro-5-(trifluoromethyl)benzyl)-1H-benzo[d]imidazol-4-yl)ethanesulfonamide]
39.9 | 6 | – | – | Cc1nc2ncc(-c3cn(C)c(=O)c4[nH]ccc34)cc2[nH]1 [Example 8, 6-methyl-4-(2-methyl-1H-imidazo[4,5-b]pyridin-6-yl)-1,6-dihydro-7H-pyrrolo[2,3-c]pyridin-7-one]
– | – | 100 to 300 | 100 to 300 | CCn1cc(-c2cnc3nc(C)n(Cc4ccc(OC)cc4)c3c2)c2cc[nH]c2c1=O [Example 12, 6-ethyl-4-(1-(4-methoxybenzyl)-2-methyl-1H-imidazo[4,5-b]pyridin-6-yl)-1,6-dihydro-7H-pyrrolo[2,3-c]pyridin-7-one]
107 | 31 | – | – | Cn1cc(-c2cnc3[nH]c(=O)n(Cc4ccc(Cl)cc4)c3c2)c2cc[nH]c2c1=O [Example 34, 1-(4-chlorobenzyl)-6-(6-methyl-7-oxo-6,7-dihydro-1H-pyrrolo[2,3-c]pyridin-4-yl)-1,3-dihydro-2H-imidazo[4,5-b]pyridin-2-one]
– | – | < 100 | < 100 | CCS(=O)(=O)Nc1cc(-c2cn(C)c(=O)c3[nH]ccc23)cc2c1nc(C)n2Cc1ccc(OC)cc1 [Example 43, N-(1-(4-methoxybenzyl)-2-methyl-6-(6-methyl-7-oxo-6,7-dihydro-H-pyrrolo[2,3-c]pyridin-4-yl)-1H-benzo[d]imidazol-4-yl)ethanesulfonamide]
– | – | < 100 | < 100 | Cc1nc2ncc(-c3cn(C)c(=O)c4[nH]ccc34)nc2n1Cc1ccc(Br)cc1 [Example 32, 4-(1-(4-bromobenzyl)-2-methyl-1H-imidazo[4,5-b]pyrazin-6-yl)-6-methyl-H-pyrrolo[2,3-c]pyridin-7(6H)-one]
– | – | > 300 | 100 to 300 | COc1ccc(Cn2c(C)nc3ncc(-c4cn(CC(C)C)c(=O)c5[nH]ccc45)cc32)cc1 [Example 11, 6-isobutyl-4-(1-(4-methoxybenzyl)-2-methyl-1H-imidazo[4,5-b]pyridin-6-yl)-1,6-dihydro-7H-pyrrolo[2,3-c]pyridin-7-one]
– | – | < 100 | < 100 | CCS(=O)(=O)Nc1cc(-c2cn(C)c(=O)c3[nH]ccc23)nc2c1ncn2Cc1ccccc1C(F)(F)F [Example 63, N-(5-(6-methyl-7-oxo-6,7-dihydro-H-pyrrolo[2,3-c]pyridin-4-yl)-3-(2-(trifluoromethyl)benzyl)-3H-imidazo[4,5-b]pyridin-7-yl)ethanesulfonamide]
7.6 | 2.8 | – | – | Cc1nc2ncc(-c3cn(C)c(=O)c4[nH]ccc34)cc2n1Cc1ccccc1 [Example 6, 4-(1-benzyl-2-methyl-1H-imidazo[4,5-b]pyridin-6-yl)-6-methyl-1H-pyrrolo[2,3-c]pyrid in-7(6H)one]
– | – | < 100 | < 100 | CCS(=O)(=O)Nc1cc(-c2cn(C)c(=O)c3[nH]ccc23)cc2c1nc(C)n2Cc1ccc(C(F)(F)F)c(F)c1 [Example 51, N-(2-methyl-6-(6-methyl-7-oxo-6,7-dihydro-1H-pyrrolo[2,3-c]pyridin-4-yl)-1-(3-fluoro-4-(trifluoromethyl)benzyl)-1H-benzo[d]imidazol-4-yl)ethanesulfonamide]
– | – | 100 to 300 | 100 to 300 | CCS(=O)(=O)Nc1cc(-c2cn(C)c(=O)c3[nH]ccc23)nc2c1ncn2C(C)c1ccc(Cl)cc1 (stereo not shown) [Example 60, N-(3-(1-(4-chlorophenyl)ethyl)-5-(6-methyl-7-oxo-6,7-dihydro-1H-pyrrolo[2,3-c]pyridin-4-yl)-3H-imidazo[4,5-b]pyridin-7-yl)ethanesulfonamide]
– | – | < 100 | < 100 | Cc1nc2ncc(-c3cn(C)c(=O)c4[nH]ccc34)nc2n1Cc1ccc(F)cc1F [Example 31, 4-(1-(2,4-difluorobenzyl)-2-methyl-1H-imidazo[4,5-b]pyrazin-6-yl)-6-methyl-1H-pyrrolo[2,3-c]pyridin-7(6H)-one]
